For test [1], the target named is GDP-bound NRAS wild-type protein (Homo sapiens, UniProt P01111). As to the kind of experiment: Binding to NRAS by surface plasmon resonance (SPR), Single Cycle Kinetics. The note with it: KD ratio NRAS/KRAS, SPR. A general note: SPR reads the build-up and loss of mass on a sensor chip optically.
The target of test [2] is GDP-bound HRAS wild-type protein (Homo sapiens, UniProt P01112). As to the kind of experiment: Binding to HRAS by surface plasmon resonance (SPR), Single Cycle Kinetics. The note with it: KD ratio HRAS/KRAS, SPR.

The results in this text go back to patent US20250230193A1, “CYCLIC COMPOUND HAVING SELECTIVE KRAS INHIBITORY EFFECT ON HRAS AND NRAS” (CHUGAI SEIYAKU KABUSHIKI KAISHA, priority 2022, published 2025).

Where a SMILES comes first, the peptide text is derived from it. Bridges are numbered along the chain shown (N, C = ends). [ ]: non-standard residue; d: D form. The star is where a group is joined. hPhe(3-Cl-4-CF3) = N[C@@H](CCc1ccc(C(F)(F)F)c(Cl)c1)C(=O)O; NEtPhe(4-Me) = CCN[C@@H](Cc1ccc(C)cc1)C(=O)O; NMeAbu(4,4,4-F3) = CN[C@@H](CC(F)(F)F)C(=O)O; NMePhe(4-Me) = CN[C@@H](Cc1ccc(C)cc1)C(=O)O; NMeGly(cPent) = CN[C@H](C(=O)O)C1CCCC1; NMeF = CN[C@@H](Cc1ccccc1)C(=O)O; NMeD = CN[C@@H](CC(=O)O)C(=O)O; NMeL = CN[C@@H](CC(C)C)C(=O)O; NMeS = CN[C@@H](CO)C(=O)O; Morpholide = C1CN(*)CCO1; NMeA = CN[C@@H](C)C(=O)O; Ac5c = NC1(C(=O)O)CCCC1; NEtG = CCNCC(=O)O; Sar = CNCC(=O)O

Chain of GDP-bound HRAS wild-type protein (P01112 whole entry): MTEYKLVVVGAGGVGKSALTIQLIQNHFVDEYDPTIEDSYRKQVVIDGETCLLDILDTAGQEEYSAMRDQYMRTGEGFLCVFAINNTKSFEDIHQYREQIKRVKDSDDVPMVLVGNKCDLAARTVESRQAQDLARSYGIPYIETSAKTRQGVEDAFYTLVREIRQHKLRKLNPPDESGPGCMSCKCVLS
Chain of GDP-bound NRAS wild-type protein (P01111 whole entry): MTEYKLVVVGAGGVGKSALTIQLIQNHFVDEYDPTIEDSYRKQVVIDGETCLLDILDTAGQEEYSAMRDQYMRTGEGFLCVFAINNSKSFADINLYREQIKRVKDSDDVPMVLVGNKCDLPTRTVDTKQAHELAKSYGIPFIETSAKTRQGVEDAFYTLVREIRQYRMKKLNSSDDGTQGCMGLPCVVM

In the case of `CC[C@H](C)[C@@H]1NC(=O)[C@H](CC(C)C)N(C)C(=O)C[C@@H](C(=O)N2CCOCC2)N(C)C(=O)[C@H](C2CCCC2)N(C)C(=O)C2(CCCC2)NC(=O)[C@@H]2CCCN2C(=O)[C@H](CCc2ccc(C(F)(F)F)c(Cl)c2)NC(=O)CN(CC)C(=O)[C@H](Cc2ccc(C)cc2)N(C)C(=O)CN(C)C(=O)CN(C)C1=O` [PP0025] ([NMeL]I[Sar][Sar][NMePhe(4-Me)][NEtG][hPhe(3-Cl-4-CF3)]P[Ac5c][NMeGly(cPent)][NMeD]-Morpholide; lactam N-11), in test [1], the “NRAS/KRAS (ratio of KD for GDP-bound NRAS wild-type to KD for KRAS)” value was “C (A compound having a KD ratio of 0.1 or more and less than 3 is denoted as C)”. The “HRAS/KRAS (ratio of KD for GDP-bound HRAS wild-type to KD for KRAS)” value in test [2] was “C (A compound having a KD ratio of 0.1 or more and less than 3 is denoted as C)”.
Take `CC[C@H](C)[C@@H]1NC(=O)[C@H](CC(C)C)N(C)C(=O)C[C@@H](C(=O)N2CCOCC2)N(C)C(=O)[C@H](C2CCCC2)N(C)C(=O)C2(CCCC2)NC(=O)[C@@H]2CCCN2C(=O)[C@H](CCc2ccc(C(F)(F)F)c(Cl)c2)NC(=O)CN(C)C(=O)[C@H](Cc2ccc(C)cc2)N(CC)C(=O)CN(CC)C(=O)CN(C)C1=O` [PP0027] ([NMeL]I[Sar][NEtG][NEtPhe(4-Me)][Sar][hPhe(3-Cl-4-CF3)]P[Ac5c][NMeGly(cPent)][NMeD]-Morpholide; lactam N-11): the “NRAS/KRAS (ratio of KD for GDP-bound NRAS wild-type to KD for KRAS)” value in test [1] was “C (A compound having a KD ratio of 0.1 or more and less than 3 is denoted as C)”. Besides, the “HRAS/KRAS (ratio of KD for GDP-bound HRAS wild-type to KD for KRAS)” value in test [2] is “C (A compound having a KD ratio of 0.1 or more and less than 3 is denoted as C)”.
Take `CC[C@H](C)[C@@H]1NC(=O)[C@H](CC(C)C)N(C)C(=O)C[C@@H](C(=O)N2CCOCC2)N(C)C(=O)[C@H](C2CCCC2)N(C)C(=O)C2(CCCC2)NC(=O)[C@@H]2CCCN2C(=O)[C@H](CCc2ccc(C(F)(F)F)c(Cl)c2)NC(=O)CN(CC)C(=O)[C@H](Cc2ccc(C)cc2)N(CC)C(=O)CN(C)C(=O)CN(C)C1=O` [PP0028] ([NMeL]I[Sar][Sar][NEtPhe(4-Me)][NEtG][hPhe(3-Cl-4-CF3)]P[Ac5c][NMeGly(cPent)][NMeD]-Morpholide; lactam N-11): the “NRAS/KRAS (ratio of KD for GDP-bound NRAS wild-type to KD for KRAS)” value in test [1] was “C (A compound having a KD ratio of 0.1 or more and less than 3 is denoted as C)”. In addition, the “HRAS/KRAS (ratio of KD for GDP-bound HRAS wild-type to KD for KRAS)” value in test [2] is “C (A compound having a KD ratio of 0.1 or more and less than 3 is denoted as C)”.
Consider `CC[C@H](C)[C@@H]1NC(=O)[C@H](CC(C)C)N(C)C(=O)C[C@@H](C(=O)N2CCOCC2)N(C)C(=O)[C@H](C2CCCC2)N(C)C(=O)C2(CCCC2)NC(=O)[C@@H]2CCCN2C(=O)[C@H](CCc2ccc(C(F)(F)F)c(Cl)c2)NC(=O)CN(CC)C(=O)[C@H](Cc2ccc(C)cc2)N(C)C(=O)CN(CC)C(=O)CN(C)C1=O` [PP0029] ([NMeL]I[Sar][NEtG][NMePhe(4-Me)][NEtG][hPhe(3-Cl-4-CF3)]P[Ac5c][NMeGly(cPent)][NMeD]-Morpholide; lactam N-11), for which, in test [1], the “NRAS/KRAS (ratio of KD for GDP-bound NRAS wild-type to KD for KRAS)” value was “C (A compound having a KD ratio of 0.1 or more and less than 3 is denoted as C)”. Also, the “HRAS/KRAS (ratio of KD for GDP-bound HRAS wild-type to KD for KRAS)” value in test [2] is “C (A compound having a KD ratio of 0.1 or more and less than 3 is denoted as C)”.
In the case of `CC[C@H](C)[C@@H]1NC(=O)[C@H](CC(C)C)N(C)C(=O)C[C@@H](C(=O)N2CCOCC2)N(C)C(=O)[C@H](C2CCCC2)N(C)C(=O)C2(CCCC2)NC(=O)[C@@H]2CCCN2C(=O)[C@H](CCc2ccc(C(F)(F)F)c(Cl)c2)NC(=O)CN(CC)C(=O)[C@H](Cc2ccc(C)cc2)N(CC)C(=O)CN(CC)C(=O)CN(C)C1=O` [PP0030] ([NMeL]I[Sar][NEtG][NEtPhe(4-Me)][NEtG][hPhe(3-Cl-4-CF3)]P[Ac5c][NMeGly(cPent)][NMeD]-Morpholide; lactam N-11), the “NRAS/KRAS (ratio of KD for GDP-bound NRAS wild-type to KD for KRAS)” value in test [1] was “C (A compound having a KD ratio of 0.1 or more and less than 3 is denoted as C)”. Also, in test [2], the “HRAS/KRAS (ratio of KD for GDP-bound HRAS wild-type to KD for KRAS)” value is “C (A compound having a KD ratio of 0.1 or more and less than 3 is denoted as C)”.
For the compound `CC[C@H](C)[C@@H]1NC(=O)[C@H](C)N(C)C(=O)C[C@@H](C(=O)N2CCOCC2)N(C)C(=O)[C@H](C2CCCC2)N(C)C(=O)C2(CCCC2)NC(=O)[C@@H]2CCCN2C(=O)[C@H](CCc2ccc(C(F)(F)F)c(Cl)c2)NC(=O)CN(C)C(=O)[C@H](Cc2ccc(C)cc2)N(CC)C(=O)CN(C)C(=O)CN(C)C1=O` [PP0031] ([NMeA]I[Sar][Sar][NEtPhe(4-Me)][Sar][hPhe(3-Cl-4-CF3)]P[Ac5c][NMeGly(cPent)][NMeD]-Morpholide; lactam N-11), the “NRAS/KRAS (ratio of KD for GDP-bound NRAS wild-type to KD for KRAS)” value in test [1] was “B (a compound having 3 or more and less than 10 is denoted as B)”. The “HRAS/KRAS (ratio of KD for GDP-bound HRAS wild-type to KD for KRAS)” value in test [2] was “C (A compound having a KD ratio of 0.1 or more and less than 3 is denoted as C)”.
As for `CC[C@H](C)[C@@H]1NC(=O)[C@H](CC(F)(F)F)N(C)C(=O)C[C@@H](C(=O)N2CCOCC2)N(C)C(=O)[C@H](C2CCCC2)N(C)C(=O)C2(CCCC2)NC(=O)[C@@H]2CCCN2C(=O)[C@H](CCc2ccc(C(F)(F)F)c(Cl)c2)NC(=O)CN(C)C(=O)[C@H](Cc2ccc(C)cc2)N(CC)C(=O)CN(C)C(=O)CN(C)C1=O` [PP0032] ([NMeAbu(4,4,4-F3)]I[Sar][Sar][NEtPhe(4-Me)][Sar][hPhe(3-Cl-4-CF3)]P[Ac5c][NMeGly(cPent)][NMeD]-Morpholide; lactam N-11), the “NRAS/KRAS (ratio of KD for GDP-bound NRAS wild-type to KD for KRAS)” value in test [1] was “C (A compound having a KD ratio of 0.1 or more and less than 3 is denoted as C)”. In addition, the “HRAS/KRAS (ratio of KD for GDP-bound HRAS wild-type to KD for KRAS)” value in test [2] is “C (A compound having a KD ratio of 0.1 or more and less than 3 is denoted as C)”.
For the compound `CC[C@H](C)[C@@H]1NC(=O)[C@H](CC(C)C)N(C)C(=O)C[C@@H](C(=O)N2CCOCC2)N(C)C(=O)[C@H](C2CCCC2)N(C)C(=O)C2(CCCC2)NC(=O)[C@@H]2CCCN2C(=O)[C@H](CCc2ccc(C(F)(F)F)c(Cl)c2)NC(=O)CN(C)C(=O)[C@H](Cc2ccc(C)cc2)N(C)C(=O)[C@H](CO)N(C)C(=O)CN(C)C1=O` [PP0037] ([NMeL]I[Sar][NMeS][NMePhe(4-Me)][Sar][hPhe(3-Cl-4-CF3)]P[Ac5c][NMeGly(cPent)][NMeD]-Morpholide; lactam N-11), the “NRAS/KRAS (ratio of KD for GDP-bound NRAS wild-type to KD for KRAS)” value in test [1] is “C (A compound having a KD ratio of 0.1 or more and less than 3 is denoted as C)”. Also, the “HRAS/KRAS (ratio of KD for GDP-bound HRAS wild-type to KD for KRAS)” value in test [2] was “C (A compound having a KD ratio of 0.1 or more and less than 3 is denoted as C)”.
In the case of `CC[C@H](C)[C@@H]1NC(=O)[C@H](CC(C)C)N(C)C(=O)C[C@@H](C(=O)N2CCOCC2)N(C)C(=O)[C@H](C2CCCC2)N(C)C(=O)C2(CCCC2)NC(=O)[C@@H]2CCCN2C(=O)[C@H](CCc2ccc(C(F)(F)F)c(Cl)c2)NC(=O)CN(C)C(=O)[C@H](Cc2ccccc2)N(C)C(=O)CN(C)C(=O)CN(C)C1=O` [PP0039] ([NMeL]I[Sar][Sar][NMeF][Sar][hPhe(3-Cl-4-CF3)]P[Ac5c][NMeGly(cPent)][NMeD]-Morpholide; lactam N-11), in test [1], the “NRAS/KRAS (ratio of KD for GDP-bound NRAS wild-type to KD for KRAS)” value is “C (A compound having a KD ratio of 0.1 or more and less than 3 is denoted as C)”. Moreover, the “HRAS/KRAS (ratio of KD for GDP-bound HRAS wild-type to KD for KRAS)” value in test [2] was “C (A compound having a KD ratio of 0.1 or more and less than 3 is denoted as C)”.
